Measured values: patent US20260199364A1, “USE OF A SYK INHIBITOR FOR THE TREATMENT OF SICKLE CELL DISEASE” (Rigel Pharmaceuticals, Inc., priority 2023, published 2026)
≈ marks a conversion by molar mass, not a printed value.

Columns and labels:
[1] = water solubility in aqueous buffer under physiological conditions; conditions: for solubility: aqueous buffer
[2] = oral bioavailability of phosphate prodrug versus active drug; type: in vivo; conditions: prodrug with progroup —CH2—O—P(O)(OH)2 compared with Compound 1

SMILES: COc1cc(Nc2ncc(F)c(Nc3ccc4c(n3)NC(=O)C(C)(C)O4)n2)cc(OC)c1OC [Compound 1, N4-(2,2-Dimethyl-3-oxo-4H-5-pyrid[1,4]oxazin-6-yl)-5-fluoro-N2-(3,4,5-trimethoxyphenyl)-2,4-pyrimidinediamine]
- solubility [1]: 1 to 2 µg/mL (≈ 2.13 to 4.25 µM)

SMILES: COc1cc(Nc2ncc(F)c(Nc3ccc4c(n3)N(COP(=O)(O)O)C(=O)C(C)(C)O4)n2)cc(OC)c1OC [Compound 4]
- solubility [1]: > 5000 µg/mL
- solubility relative to active drug (Compound 1) ([1]; aqueous buffer under physiological conditions, prodrug vs Compound 1): approximately 2000 times greater
- oral bioavailability [2]: increased dramatically
